In US20250326708A1, “LONG-ACTING SPLEEN-TARGETING CATIONIC LIPID COMPOUND COMPRISING BENZENE RING STRUCTURE, COMPOSITION COMPRISING SAME, AND USE THEREOF” (Beijing Youcarekechuang Pharmaceutical Technology Co., Ltd., priority 2024, published 2025):
“And” between values parts separate entries of the source, which are not always exact repeats. Equal values may be shown once.

How the values were obtained:
[1] = Particle size and polydispersity index (PDI) of lipid nanoparticles, dynamic light scattering; type: physicochemical; details: LNP preparation with the named cationic lipid; 90° scattering angle, 25° C
From the text: (§1) The cationic lipids listed in Table 2 were each mixed with DSPC (AVT (Shanghai) Pharmaceutical Technology Co., Ltd.), cholesterol (AVT (Shanghai) Pharmaceutical Technology Co., Ltd.), and DMG-PEG2000 in a molar ratio of 49:10:39.5:1.5 and dissolved in ethanol to prepare ethanol lipid solutions. Using the ethanol injection method, the ethanol lipid solutions were quickly added to a citrate buffer (pH between 4 and 5), and vortexed for 30 seconds for later use. eGFP-mRNA (purchased from Shanghai BioHub Biotechnology Co., Ltd.), Fluc-mRNA (purchased from Shanghai BioHub Biotechnology Co., Ltd.), or Cy5 fluorescently labeled Leqvio (purchased from Sangon Biotech (Shanghai) Co., Ltd.) was diluted in a citrate buffer (pH between 4 and 5) to obtain an mRNA aqueous solution. A certain volume of the lipid solution and the mRNA aqueous solution were mixed to prepare liposomes at a total lipid-to-mRNA weight ratio of 15:1. The mixtures were sonicated at 25° C. for 15 minutes (ultrasonic frequency: 40 kHz, ultrasonic power: 800 W). The resulting liposomes were diluted 10-fold with PBS, followed by ultrafiltration using a 300 kDa ultrafiltration tube to remove ethanol. After adjusting the volume with PBS, LNP preparations encapsulating eGFP-mRNA or Fluc-mRNA were obtained, using cationic lipids, DSPC, cholesterol, and DMG-PEG2000 at a molar ratio of 49:10:39.5:1.5.
The particle size and polydispersity index (PDI) were measured using dynamic light scattering with a Malvern laser diffraction particle size analyzer.
10 μL of liposome solution was diluted to 1 mL with RNase-free deionized water and added to the sample cell. Each sample was measured three times. The measurement conditions were as follows: 90° scattering angle, 25° C.

293T cells [2] = experiment: Cell viability assay (CCK-8) with LNP preparations of Fluc-mRNA; type: cell-based; details: for Cell viability: LNP with 1.5 μg Fluc-mRNA, 24 hours, CCK-8
Experimental: (§2) Cell recovery and passage: 293T cells were recovered and cultured in culture dishes. The cells were passaged until the required number of cells was obtained.
(§3) Seeding plates: The cells in culture dishes were digested and counted, then seeded in a 96-well plate at 10,000 cells per well and seeded in a 12-well plate at 150,000 cells per well. The cells were cultured overnight until cell adhesion.
as §1
(§4) Cell recovery and passage: The method was the same as described in Example 3.
(§5) Seeding plates: The method was the same as described in Example 3.
LNP preparations containing 1.5 μg of Fluc-mRNA (with the vector components of the LNP preparations of cationic lipids, DSPC, cholesterol, and DMG-PEG2000 in a molar ratio of 49:10:39.5:1.5, where the cationic lipids are those listed in Table 1) were added to the cell culture medium in a 96-well plate. After 24 hours of continued culture, 10 μL of CCK-8 solution was added to each well, and the culture plate was incubated in an incubator for 1 hour.

293T cells [3] = experiment: Fluorescence detection of Fluc-mRNA (transfection efficiency) of LNP preparations; type: cell-based; details: for Relative light unit (RLU): LNP with 0.3 μg Fluc-mRNA, 96-well plate, 24 hours
Experimental: as §2, §3, §1, §4, §5
LNP preparations containing 0.3 μg of Fluc-mRNA (with the vector components of the LNP preparations of cationic lipids, DSPC, cholesterol, and DMG-PEG2000 in a molar ratio of 49:10:39.5:1.5, where the cationic lipids are those listed in Table 1) were added to the cell culture medium in a 96-well plate. After 24 hours of continued culture, the corresponding reagents were added according to the instructions in the Gaussia Luciferase Assay Kit. Fluorescence intensity in each well was detected using the IVIS fluorescence detection system. The transfection efficiency of LNP preparations prepared with a series of cationic lipid compounds designed in the present disclosure, as well as cationic lipids from the prior art, including SM-102, HHMA, MC3, compound 7, and I-1, is shown in Table 4.

female BALB/C mice [4] = experiment: Expression of delivered mRNA in mice in vivo (IVIS in vivo imaging); details: 10 μg Fluc-mRNA via tail vein
Experimental: LNP preparations containing 10 μg of Fluc-mRNA were injected via the tail vein into female BALB/C mice (4 to 6 weeks old, weighing 17 to 19 g). At specified time points after administration (6 h, 24 h, 48 h, and 7 d), the mice were intraperitoneally injected with fluorescent imaging substrates and allowed to move freely for 5 minutes. The average radiation intensity (corresponding to fluorescence intensity) of proteins expressed by the mRNA delivered by the LNP preparations in the mice in vivo was then detected using the IVIS Spectrum small-animal in vivo imaging system.

female BALB/C mice [5] = experiment: Expression of delivered mRNA in different organs of mice (organ imaging); type: in vivo; details: for Average radiation intensity of mouse organs: Heart / Average radiation intensity of mouse organs: Kidney / Average radiation intensity of mouse organs: Liver / Average radiation intensity of mouse organs: Lung / Average radiation intensity of mouse organs: Lymph / Average radiation intensity of mouse organs: Spleen: 6 hours after 5 μg Fluc-mRNA subcutaneously
Experimental: LNP preparations containing 5 μg of Fluc-mRNA were subcutaneously injected into female BALB/C mice (4 to 6 weeks old, weighing 17 to 19 g). At specified time points after administration (6 h), the mice were intraperitoneally injected with fluorescent imaging substrates and allowed to move freely for 5 minutes. The average radiation intensity (corresponding to fluorescence intensity) of proteins expressed by the mRNA delivered by the LNP preparations in the mice in vivo was then detected using the IVIS Spectrum small-animal in vivo imaging system. After sampling, the mice were killed by cervical dislocation and dissected, and the internal organs: heart, liver, spleen, lung, kidney, and lymph of mice were accurately isolated. The average radiation intensity (corresponding to fluorescence intensity) of proteins expressed by the mRNA delivered by the LNP preparations in various organs of mice was then detected using the IVIS Spectrum small-animal in vivo imaging system.

| PDI [1] [%] | Particle size [1] [nm] | Compound | Cell viability (293T cells [2]) [%] | Relative light unit (RLU) (293T cells [3]) | Average radiation intensity, in vivo imaging (female BALB/C mice [4]; 6 h) | Average radiation intensity, in vivo imaging (female BALB/C mice [4]; 24 h) | Average radiation intensity, in vivo imaging (female BALB/C mice [4]; 48 h) | Average radiation intensity, in vivo imaging (female BALB/C mice [4]; 7 d) | Average radiation intensity of mouse organs: Heart (female BALB/C mice [5]) | Average radiation intensity of mouse organs: Kidney (female BALB/C mice [5]) | Average radiation intensity of mouse organs: Liver (female BALB/C mice [5]) | Average radiation intensity of mouse organs: Lung (female BALB/C mice [5]) | Average radiation intensity of mouse organs: Lymph (female BALB/C mice [5]) | Average radiation intensity of mouse organs: Spleen (female BALB/C mice [5]) | further results |
| --- | --- | --- | --- | --- | --- | --- | --- | --- | --- | --- | --- | --- | --- | --- | --- |
| 14.3 | 162 | CCCCCCCCC(CCCCCC)COC(=O)CCCCCN(CCCCCC(=O)OCC(CCCCCC)CCCCCCCC)CCN(CCO)c1ccccc1 (stereo not drawn) [Compound 7, bis(2-hexyldecyl) 6,6′-((2-((2-hydroxyethyl) (phenyl)amino)ethyl)azanediyl)dihexanoate, reference compound] | 73 | 257490 | 1847654 | 185473 | 96543 | 8511 | – | – | – | – | – | – | – |
| 13.5 | 145 | CCCCCCCCCCCOC(=O)CCCCCN(CCO)CCCCCCCC(=O)OC(CCCCCCCC)CCCCCCCC [SM-102, reference compound] | 82 | 1428141 | 2144435 | 314533 | 134554 | 9243 | 0 | 0 | 24365 | 0 | 0 | 25547 | Expression level in the liver, times that of YK-908 (female BALB/C mice [5]; liver, 6 h, vs YK-908): 17.12 times; Expression level in the liver, times that of YK-909 (female BALB/C mice [5]; liver, 6 h, vs YK-909): 2.67 times; Expression level in the liver, times that of YK-910 (female BALB/C mice [5]; liver, 6 h, vs YK-910): 2.13 times |
| 13.3 | 144 | CCCCCCCCCCOC(=O)CCCN1CCN(CCCCCC(=O)OCC(CCCCCCC)CCCCCCCC)CC1 (stereo not drawn) [YK-501, reference compound] | 63 | 46243 | 346241 | 174776 | 55543 | 5634 | 0 | 0 | 3334 | 0 | 0 | 14224 | – |
| 12.2 | 141 | CCCCCCCCCCCCSSCCNC(=O)CCN1CCN(CCCCCC(=O)OCCC(CCCCCC)CCCCCC)CC1 [YK-506, reference compound] | 90 | 654224 | 1801233 | 257765 | 82221 | 34234 | 0 | 0 | 18913 | 0 | 0 | 71213 | – |
| 8.2 | 112 | CCCCCCCCCCCOC(=O)CCCCCCNC(CO)(CO)CCc1ccc(CCCCCCCC)cc1 [YK-904, undecyl 7-((1-hydroxy-2-(hydroxymethyl)-4-(4-octylphenyl)butan-2-yl)amino) heptanoate] | 52 | 125048 | 1116384 | 115355 | 28552 | 3243 | – | – | – | – | – | – | – |
| 12.2 | 121 | CCCCCCCCc1ccc(CCC(CO)(CO)NCCCCCCNC(=O)C(CCCCCC)CCCCCCCC)cc1 (stereo not drawn) [YK-908, 2-hexyl-N-(6-((1-hydroxy-2-(hydroxymethyl)-4-(4-octylphenyl)butan-2-yl)amino)hexyl) decanamide] | 89 | – | 8918424 | 1176543 | 344643 | 64325 | 0 | 0 | 1423 | 0 | 0 | 168302 | Cell viability higher than that of YK-907 (293T cells [2]; difference vs YK-907): 16%; Cellular transfection efficiency, times that of HHMA (293T cells [3]; Fluc-mRNA LNP, vs HHMA): 5.01 times; Cellular transfection efficiency, times that of I-1 (293T cells [3]; Fluc-mRNA LNP, vs I-1): 25.01 times; Cellular transfection efficiency, times that of Lipofectamine 3000 (293T cells [3]; Fluc-mRNA LNP, vs Lipofectamine 3000): 6.02 times; Cellular transfection efficiency, times that of MC3 (293T cells [3]; Fluc-mRNA LNP, vs MC3): 53.42 times; Cellular transfection efficiency, times that of SM-102 (293T cells [3]; Fluc-mRNA LNP, vs SM-102): 3.55 times; Cellular transfection efficiency, times that of YK-501 (293T cells [3]; Fluc-mRNA LNP, vs YK-501): 109.64 times; Cellular transfection efficiency, times that of YK-506 (293T cells [3]; Fluc-mRNA LNP, vs YK-506): 7.75 times; Cellular transfection efficiency, times that of YK-907 (293T cells [3]; Fluc-mRNA LNP, vs YK-907): 134 times and 134.49 times; Cellular transfection efficiency, times that of compound 7 (293T cells [3]; Fluc-mRNA LNP, vs compound 7): 19.69 times; Expression level of mRNA in the spleen, times that of SM-102 (female BALB/C mice [5]; spleen, 6 h, vs SM-102): 6.59 times; Expression level of mRNA in the spleen, times that of YK-501 (female BALB/C mice [5]; spleen, 6 h, vs YK-501): 11.83 times; Expression level of mRNA in the spleen, times that of YK-506 (female BALB/C mice [5]; spleen, 6 h, vs YK-506): 2.36 times |
